Data from ChEMBL document CHEMBL1629585, “Nationwide survey of CTX-M-type extended-spectrum beta-lactamases among Klebsiella pneumoniae isolates in Slovenian hospitals” (2009).
Converted amounts (≈) assume the structure as drawn.

Columns and labels:
Escherichia coli [1] = test: Antibacterial activity against rifampicin resistant Escherichia coli J53-2 by Etest method
Klebsiella pneumoniae [2] = test: Antibacterial activity against Klebsiella pneumoniae B expressing CTX-M group 1 beta-lactamase by Etest method; type: functional
Klebsiella pneumoniae [3] = test: Antibacterial activity against Klebsiella pneumoniae D expressing CTX-M group 1 beta-lactamase by Etest method; type: functional
Klebsiella pneumoniae [4] = test: Antibacterial activity against Klebsiella pneumoniae A expressing CTX-M group 1 beta-lactamase by Etest method; type: functional
Escherichia coli [5] = test: Antibacterial activity against Escherichia coli TrC B expressing Klebsiella pneumoniae B blaCTX-M beta-lactamase by Etest method; type: functional
Escherichia coli [6] = test: Antibacterial activity against Escherichia coli TrC A expressing Klebsiella pneumoniae A blaCTX-M beta-lactamase by Etest method; type: functional
Escherichia coli [7] = test: Antibacterial activity against Escherichia coli TrC C expressing Klebsiella pneumoniae C blaCTX-M beta-lactamase by Etest method; type: functional
Klebsiella pneumoniae [8] = test: Antibacterial activity against Klebsiella pneumoniae expressing CTX-M group 1 beta-lactamase by Etest method; type: functional
Klebsiella pneumoniae [9] = test: Antibacterial activity against Klebsiella pneumoniae C expressing CTX-M group 1 beta-lactamase by Etest method; type: functional
Klebsiella pneumoniae [10] = test: Antibacterial activity against Klebsiella pneumoniae expressing CTX-M group 1 beta-lactamase by Etest method in presence of Tazobactam; type: functional
Klebsiella pneumoniae [11] = test: Antibacterial activity against Klebsiella pneumoniae C expressing CTX-M group 1 beta-lactamase by Etest method in presence of Tazobactam; type: functional
Klebsiella pneumoniae [12] = test: Antibacterial activity against Klebsiella pneumoniae A expressing CTX-M group 1 beta-lactamase by Etest method in presence of Tazobactam; type: functional
Klebsiella pneumoniae [13] = test: Antibacterial activity against Klebsiella pneumoniae D expressing CTX-M group 1 beta-lactamase by Etest method in presence of Tazobactam; type: functional
Klebsiella pneumoniae [14] = test: Antibacterial activity against Klebsiella pneumoniae B expressing CTX-M group 1 beta-lactamase by Etest method in presence of Tazobactam; type: functional
Escherichia coli [15] = test: Antibacterial activity against Escherichia coli TrC B expressing Klebsiella pneumoniae B blaCTX-M beta-lactamase by Etest method in presence of Tazobactam; type: functional
Escherichia coli [16] = test: Antibacterial activity against rifampicin resistant Escherichia coli J53-2 by Etest method in presence of Tazobactam; type: functional
Escherichia coli [17] = test: Antibacterial activity against Escherichia coli TrC A expressing Klebsiella pneumoniae A blaCTX-M beta-lactamase by Etest method in presence of Tazobactam; type: functional
Escherichia coli [18] = test: Antibacterial activity against Escherichia coli TrC C expressing Klebsiella pneumoniae C blaCTX-M beta-lactamase by Etest method in presence of Tazobactam; type: functional

O=C(O)c1cn(C2CC2)c2cc(N3CCNCC3)c(F)cc2c1=O [CIPROFLOXACIN]
MIC (Escherichia coli [1]): ≤ 0.125 µg/mL
MIC50 (Klebsiella pneumoniae [2]): > 32 µg/mL
MIC90 (Klebsiella pneumoniae [2]): > 32 µg/mL
MIC50 (Klebsiella pneumoniae [3]): > 32 µg/mL
MIC90 (Klebsiella pneumoniae [3]): > 32 µg/mL
MIC (Klebsiella pneumoniae [4]): 0.38 µg/mL (≈ 1.15 µM)
MIC50 (Klebsiella pneumoniae [4]): 1 µg/mL (≈ 3.02 µM)
MIC90 (Klebsiella pneumoniae [4]): 6 µg/mL (≈ 18.1 µM)
MIC (Escherichia coli [5]): ≤ 0.125 µg/mL
MIC (Escherichia coli [6]): ≤ 0.125 µg/mL
MIC (Escherichia coli [7]): ≤ 0.125 µg/mL
MIC (Klebsiella pneumoniae [8]): 0.032 µg/mL (≈ 0.0966 µM)
MIC50 (Klebsiella pneumoniae [8]): 16 µg/mL (≈ 48.3 µM)
MIC90 (Klebsiella pneumoniae [8]): > 32 µg/mL
MIC50 (Klebsiella pneumoniae [9]): > 32 µg/mL
MIC90 (Klebsiella pneumoniae [9]): > 32 µg/mL

C[C@@H](O)[C@H]1C(=O)N2C(C(=O)O)=C(SCCNC=N)C[C@H]12 [IMIPENEM ANHYDROUS]
MIC (Klebsiella pneumoniae [2]): 0.125 µg/mL (≈ 0.418 µM)
MIC50 (Klebsiella pneumoniae [2]): 0.19 µg/mL (≈ 0.635 µM)
MIC90 (Klebsiella pneumoniae [2]): 0.19 µg/mL (≈ 0.635 µM)
MIC (Klebsiella pneumoniae [3]): 0.19 µg/mL (≈ 0.635 µM)
MIC50 (Klebsiella pneumoniae [3]): 0.25 µg/mL (≈ 0.835 µM)
MIC90 (Klebsiella pneumoniae [3]): 0.25 µg/mL (≈ 0.835 µM)
MIC (Klebsiella pneumoniae [4]): 0.19 µg/mL (≈ 0.635 µM)
MIC50 (Klebsiella pneumoniae [4]): 0.25 µg/mL (≈ 0.835 µM)
MIC90 (Klebsiella pneumoniae [4]): 0.38 µg/mL (≈ 1.27 µM)
MIC (Klebsiella pneumoniae [8]): 0.19 µg/mL (≈ 0.635 µM)
MIC50 (Klebsiella pneumoniae [8]): 0.25 µg/mL (≈ 0.835 µM)
MIC90 (Klebsiella pneumoniae [8]): 0.5 µg/mL (≈ 1.67 µM)
MIC (Klebsiella pneumoniae [9]): 0.19 µg/mL (≈ 0.635 µM)
MIC50 (Klebsiella pneumoniae [9]): 0.19 µg/mL (≈ 0.635 µM)
MIC90 (Klebsiella pneumoniae [9]): 0.38 µg/mL (≈ 1.27 µM)

CCN1CCN(C(=O)N[C@@H](C(=O)N[C@@H]2C(=O)N3[C@@H]2SC(C)(C)[C@@H]3C(=O)O)c2ccccc2)C(=O)C1=O [PIPERACILLIN]
MIC (Escherichia coli [1]): 4 µg/mL (≈ 7.73 µM)
MIC (Klebsiella pneumoniae [10]): 3 µg/mL
MIC50 (Klebsiella pneumoniae [10]): 12 µg/mL
MIC90 (Klebsiella pneumoniae [10]): > 256 µg/mL
MIC (Klebsiella pneumoniae [11]): 3 µg/mL
MIC50 (Klebsiella pneumoniae [11]): > 256 µg/mL
MIC90 (Klebsiella pneumoniae [11]): > 256 µg/mL
MIC (Klebsiella pneumoniae [12]): 2 µg/mL
MIC50 (Klebsiella pneumoniae [12]): 3 µg/mL
MIC90 (Klebsiella pneumoniae [12]): 12 µg/mL
MIC (Klebsiella pneumoniae [13]): 4 µg/mL
MIC50 (Klebsiella pneumoniae [13]): 12 µg/mL
MIC90 (Klebsiella pneumoniae [13]): 24 µg/mL
MIC (Escherichia coli [5]): > 64 µg/mL
MIC (Escherichia coli [6]): > 64 µg/mL
MIC (Escherichia coli [7]): > 64 µg/mL
MIC (Klebsiella pneumoniae [14]): 32 µg/mL
MIC50 (Klebsiella pneumoniae [14]): 64 µg/mL
MIC90 (Klebsiella pneumoniae [14]): > 256 µg/mL

C[C@]1(Cn2ccnn2)[C@H](C(=O)O)N2C(=O)C[C@H]2S1(=O)=O [TAZOBACTAM]
MIC (Klebsiella pneumoniae [11]): > 64 µg/mL
MIC (Escherichia coli [15]): 16 µg/mL
MIC (Klebsiella pneumoniae [12]): 4 µg/mL
MIC (Escherichia coli [16]): 4 µg/mL
MIC (Escherichia coli [17]): 4 µg/mL
MIC (Escherichia coli [18]): 16 µg/mL
MIC (Klebsiella pneumoniae [14]): > 64 µg/mL

NC[C@H]1O[C@H](O[C@H]2[C@H](O)[C@@H](O[C@H]3O[C@H](CO)[C@@H](O)[C@H](N)[C@H]3O)[C@H](N)C[C@@H]2N)[C@H](N)C[C@@H]1O [TOBRAMYCIN]
MIC (Escherichia coli [1]): 1 µg/mL (≈ 2.14 µM)
MIC (Klebsiella pneumoniae [2]): 32 µg/mL (≈ 68.4 µM)
MIC (Klebsiella pneumoniae [4]): 32 µg/mL (≈ 68.4 µM)
MIC (Escherichia coli [5]): 32 µg/mL (≈ 68.4 µM)
MIC (Escherichia coli [6]): 32 µg/mL (≈ 68.4 µM)
MIC (Escherichia coli [7]): 16 µg/mL (≈ 34.2 µM)
MIC (Klebsiella pneumoniae [9]): 32 µg/mL (≈ 68.4 µM)

GENTAMICIN
MIC (Escherichia coli [5]): 32 µg/mL
MIC (Escherichia coli [6]): 4 µg/mL
MIC (Escherichia coli [7]): 16 µg/mL
MIC50 (Klebsiella pneumoniae [8]): 64 µg/mL
MIC90 (Klebsiella pneumoniae [8]): > 256 µg/mL
MIC50 (Klebsiella pneumoniae [9]): 128 µg/mL
MIC90 (Klebsiella pneumoniae [9]): > 256 µg/mL
